Consider 27 compounds from ChEMBL document CHEMBL4270590, “Azulene-based compounds for targeting orexin receptors” (Eur J Med Chem, 2018).

Active and inactive are the calls of the source. The calls are words filed in the database; no cut-off is given here.

Data set [1] addresses T1, Orexin receptor type 2 (Homo sapiens) (UniProt O43614).
T1 sequence (whole entry): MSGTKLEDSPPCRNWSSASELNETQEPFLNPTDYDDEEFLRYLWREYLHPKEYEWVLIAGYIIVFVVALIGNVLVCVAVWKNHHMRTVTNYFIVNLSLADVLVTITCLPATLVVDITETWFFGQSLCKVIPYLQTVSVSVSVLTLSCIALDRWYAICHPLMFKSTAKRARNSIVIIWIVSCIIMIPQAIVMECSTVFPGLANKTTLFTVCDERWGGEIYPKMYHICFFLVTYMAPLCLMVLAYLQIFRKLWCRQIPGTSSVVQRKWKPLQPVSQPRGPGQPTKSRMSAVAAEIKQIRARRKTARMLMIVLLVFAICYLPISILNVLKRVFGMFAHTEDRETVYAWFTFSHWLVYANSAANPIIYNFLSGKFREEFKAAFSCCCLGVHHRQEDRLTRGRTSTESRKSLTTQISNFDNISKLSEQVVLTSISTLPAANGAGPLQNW
In words: Displacement of [125I]-orexin-A from human OX2 receptor expressed in CHOK1 cells at 10 uM incubated for 10 mins and measured after 90 mins by liquid scintillation counting method relative to control. Type of data set: cell-based. Background: Loss of bound radioactivity is the signal in a displacement assay; it reports binding, not function.

The target in data set [2] is T2, Orexin/Hypocretin receptor type 1 (Homo sapiens) (UniProt O43613).
T2 sequence (whole entry): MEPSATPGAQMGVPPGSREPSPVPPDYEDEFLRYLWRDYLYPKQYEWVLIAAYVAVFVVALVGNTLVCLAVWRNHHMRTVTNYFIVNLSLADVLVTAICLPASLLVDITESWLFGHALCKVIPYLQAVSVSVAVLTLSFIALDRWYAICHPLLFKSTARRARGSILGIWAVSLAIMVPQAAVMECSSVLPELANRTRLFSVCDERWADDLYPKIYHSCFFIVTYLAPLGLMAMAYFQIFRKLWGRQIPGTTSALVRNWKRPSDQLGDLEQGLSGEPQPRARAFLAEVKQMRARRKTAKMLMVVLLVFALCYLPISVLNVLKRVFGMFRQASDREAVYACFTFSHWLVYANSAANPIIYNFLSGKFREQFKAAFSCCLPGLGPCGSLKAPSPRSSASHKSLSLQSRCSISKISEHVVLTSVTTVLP
In words: Agonist activity at human OX1 receptor expressed in CHOK1 cells assessed as increase in calcium accumulation at 10 uM incubated for 30 mins measured for 150 secs by calcium-4 dye based FLIPR assay relative to orexin-A. Type of data set: functional, cell-based.

For data set [3], the target named is T1, Orexin receptor type 2 (Homo sapiens). In words: Agonist activity at human OX2 receptor expressed in CHOK1 cells assessed as increase in calcium accumulation at 10 uM incubated for 30 mins measured for 150 secs by calcium-4 dye based FLIPR assay relative to orexin-A. It counts as functional, cell-based.
Data set [4] has as its target T2, Orexin/Hypocretin receptor type 1 (Homo sapiens). Kind of data set: Displacement of [125I]-orexin-A from human OX1 receptor expressed in CHOK1 cells at 10 uM incubated for 10 mins and measured after 90 mins by liquid scintillation counting method relative to control. It counts as cell-based.
The test system of the next data set is CHO-K1. In words: Effect on ATP-induced intracellular calcium accumulation in CHOK1 cells expressing human OXR at 10 uM incubated for 30 mins and measured for 150 secs by calcium-4 dye based FLIPR assay. The note with it: Cricetulus griseus. It counts as functional, cell-based. On the technique in general: A change in cytosolic calcium serves as a functional read-out for many receptors and channels.

In data set [5] the target is T2, Orexin/Hypocretin receptor type 1 (Homo sapiens). In words: Allosteric agonist activity at human OX1 receptor expressed in CHOK1 cells assessed as potentiation of orexin-A induced calcium accumulation at 10 uM preincubated for 30 mins followed by orexin-A addition and measured for 150 secs by calcium-4 dye based FLIPR assay relative to control. It counts as functional, cell-based.

Data set [6] addresses T1, Orexin receptor type 2 (Homo sapiens). Kind of data set: Allosteric agonist activity at human OX2 receptor expressed in CHOK1 cells assessed as potentiation of orexin-A induced calcium accumulation at 10 uM preincubated for 30 mins followed by orexin-A addition and measured for 150 secs by calcium-4 dye based FLIPR assay relative to control. It counts as functional, cell-based.

The target of data set [7] is T2, Orexin/Hypocretin receptor type 1 (Homo sapiens). Kind of data set: Allosteric agonist activity at human OX1 receptor expressed in CHOK1 cells assessed as potentiation of orexin-A induced calcium accumulation preincubated for 30 mins followed by orexin-A addition and measured for 150 secs by calcium-4 dye based FLIPR assay. It counts as functional, cell-based.
Data set [8] can be described thus: Solubility of the compound in water. It counts as physicochemical. The note with it: buffer.
The target of data set [9] is T1, Orexin receptor type 2 (Homo sapiens). In words: Allosteric agonist activity at human OX2 receptor expressed in CHOK1 cells assessed as potentiation of orexin-A induced calcium accumulation preincubated for 30 mins followed by orexin-A addition and measured for 150 secs by calcium-4 dye based FLIPR assay. It counts as functional, cell-based.

For `COC(=O)c1ccc2ccc(C=O)c-2cc1`, the inhibition in [1] worked out at 37.2%; in data set [4] it was 25%. Also, the Emax in data set [2] is 3.06%; in [3], 2.26%.

For `O=C(O)Cc1ccc2ccc(C(=O)c3ccc(C(F)(F)F)cc3)c-2cc1`, the inhibition in data set [1] amounted to 11.2%; in data set [4] it was 8.6%. In addition, the result in the data set on CHO-K1 was inactive. Also, the fold change (FC) in data set [5] was 1.5; in [6], 0.98. In addition, the Emax in [2] is 0.22%; in [3], -1.06%.

Turning to `NC(=O)c1ccc2ccc(C(=O)c3ccccc3)c-2cc1`, the inhibition is 18% in data set [1] and 13.6% in [4]. The Emax in data set [2] was found to be 0.42%; in data set [3], 1.32%.

For `O=C(Oc1ccc2ccc(Cl)ccc1-2)c1cccs1`, the values for the inhibition in [1] and in data set [4] were 33.2% and 9.8%, respectively. In addition, the Emax in [2] is 0.91%; in [3], -2.7%.

`O=C(Oc1ccc2ccc(Cl)ccc1-2)c1ccccc1`: the inhibition in data set [1] was determined as 34.3%; in [4], 0.1%. Further, the Emax is 0.08% in [2] and -3.3% in data set [3].

Turning to `COC(=O)c1cccc2c(C(=O)c3ccccc3)cc(C(=O)c3ccc(C(F)(F)F)cc3)c-2c1`, the inhibition in [1] came to 27%; in [4], 10.4%. The Emax was 0.69% in data set [2] and -0.14% in [3].

In the case of `NC(=O)c1ccc2c(C=O)cc(-c3ccccc3)c-2cc1`, the inhibition in data set [1] is 16.7%; in data set [4], 6.1%. Also, the figures for the Emax in data set [2] and in data set [3] were 0.64% and 1.71%, respectively.

Turning to `O=Cc1ccc2ccc(C(=O)O)ccc1-2`, the inhibition in [1] is 44.1%; in data set [4] it was 37.8%. For the same compound, the Emax in [2] is 1.75%; in data set [3], 3.47%.

With `COC(=O)CCC(=O)Oc1ccc2ccc(Cl)ccc1-2`, the figures for the inhibition in [1] and in [4] were 24.3% and 8%, respectively. For the same compound, the results for the Emax in data set [2] and in [3] were 0.73% and -2.13%, respectively.

Turning to `O=C(OCc1ccccc1)Oc1ccc2ccc(Cl)ccc1-2`, the inhibition in data set [1] came to 35.6%; in [4], 18.2%. Moreover, the Emax in [2] is 0.46%; in data set [3] it was -2.71%.

With `Cc1ccc2ccc(C(=O)c3ccc(C(F)(F)F)cc3)c-2cc1`, the inhibition in data set [1] was determined as 31%; in [4] it was 38.3%. Also, the Emax is 0.61% in data set [2] and -0.44% in [3].

As for `COC(=O)c1ccc2c(C(=O)c3ccccc3)cc(C(=O)c3ccccc3)c-2cc1`, in the data set on CHO-K1, the result was inactive. Further, the fold change (FC) in data set [5] turned out to be 1.97; in data set [6] it was 0.88. Besides, the Emax in [2] is -0.56%; in data set [3], -1.51%. Also, the Activity entry in [7] and in [9] was “Dose-dependent effect” each time. For the same compound, the solubility result in [8] is “Insoluble”.

Consider `O=C(O)c1ccc2ccc(C(=O)c3ccc(C(F)(F)F)cc3)c-2cc1`, for which, in [1], the inhibition worked out at 1%. Moreover, in the data set with CHO-K1, the result was inactive. For the same compound, the fold change (FC) in data set [5] amounted to 1.53; in data set [6] it was 0.9. For the same compound, the Emax is 1.09% in data set [2] and 2.96% in data set [3].

For `O=Cc1cc(-c2ccccc2)c2ccc(C(=O)O)ccc1-2`, the inhibition was 21.5% in data set [1] and 16.2% in data set [4]. In addition, the Emax in [2] is 0.8%; in data set [3] it was -0.21%.

With `COC(=O)c1ccc2c(I)cc(C(=O)c3ccccc3)c-2cc1`, the inhibition in [1] is -5.4%. Moreover, in the data set on CHO-K1, the outcome was inactive. The fold change (FC) in data set [5] came out at 1.99; in data set [6] it was 1.02. Further, the Emax in data set [2] was 1.17%; in data set [3] it was -0.25%. Besides, the Activity result in [7] and in data set [9] was “Dose-dependent effect” in each case. In data set [8], the solubility entry was “Insoluble”.

Consider `COC(=O)Cc1ccc2c(C(=O)c3ccccc3)cc(C(=O)c3ccccc3)c-2cc1`, for which the outcome in the data set on CHO-K1 was inactive. For the same compound, the figures for the fold change (FC) in [5] and in data set [6] were 1.68 and 1.06, respectively. The values for the Emax in data set [2] and in [3] were 0.28% and 0.05%, respectively.

On to `O=C(O)c1cccc2c(C(=O)c3ccccc3)cc(C(=O)c3ccc(C(F)(F)F)cc3)c-2c1`, for which the results for the inhibition in [1] and in data set [4] were 26.4% and 18.3%, respectively. The Emax was -1.38% in data set [2] and -3.18% in data set [3].

Turning to `O=C(Oc1ccc2ccc(Cl)ccc1-2)c1cccnc1`, the inhibition in data set [1] is 32.3%; in data set [4], -2.4%. Besides, the Emax in [2] is 0.6%; in data set [3], -2.65%.

`O=C(O)c1ccc2c(C(=O)c3ccccc3)cc(C(=O)c3ccccc3)c-2cc1`: the inhibition in [1] came out at 27%. Further, in the data set on CHO-K1, the outcome was inactive. The values for the fold change (FC) in data set [5] and in [6] were 1.42 and 0.75, respectively. Further, the values for the Emax in data set [2] and in data set [3] were -1.39% and -2.09%, respectively.

With `COC(=O)c1cccc2c(C(=O)c3ccccc3)cc(C(=O)c3ccc(C(Cl)(Cl)Cl)cc3)c-2c1`, the inhibition in [1] was found to be 27%; in data set [4], 10.4%. Besides, the figures for the Emax in data set [2] and in [3] were 0.69% and -0.14%, respectively.

As for `O=C(O)c1ccc2ccc(C(=O)c3ccccc3)c-2cc1`, the inhibition in data set [1] stood at 32.9%; in data set [4], 11%. Besides, the outcome in the data set on CHO-K1 was inactive. Moreover, the fold change (FC) in data set [5] is 1.52; in data set [6], 0.98. The values for the Emax in data set [2] and in data set [3] were 2.16% and 2.29%, respectively.

In the case of `COC(=O)c1ccc2ccc(C(=O)c3ccccc3)c-2cc1`, the inhibition was determined as 28.9% in [1] and 7.2% in data set [4]. For the same compound, in the data set with CHO-K1, the result was inactive. Also, the fold change (FC) in [5] was found to be 1.64; in data set [6], 0.79. Further, the Emax in data set [2] is 4.15%; in data set [3], 4.92%.

As to `CC(C)(C)OC(=O)NCC(=O)Oc1ccc2ccc(Cl)ccc1-2`, the inhibition in data set [1] was 36%; in data set [4], -4.5%. Further, the Emax in data set [2] is 1.62%; in data set [3], -1.01%.

Consider `COC(=O)c1cc(C=O)c2ccc(/C=C/c3cnc[nH]3)ccc1-2`, for which the inhibition in [1] came to 39.9%; in data set [4], 23%. In addition, the results for the Emax in data set [2] and in data set [3] were 2.35% and 0.4%, respectively.

Consider `COC(=O)c1ccc2c(C=O)cc(-c3ccccc3)c-2cc1`, for which the figures for the inhibition in data set [1] and in data set [4] were 1.8% and 8.5%, respectively. Besides, the values for the Emax in data set [2] and in data set [3] were 0.8% and -0.27%, respectively.

With `O=C(O)c1cccc2c(C(=O)c3ccccc3)cc(C(=O)c3ccc(C(Cl)(Cl)Cl)cc3)c-2c1`, the inhibition was determined as 25.6% in data set [1] and 19.9% in data set [4]. Moreover, the Emax was -1.38% in data set [2] and -3.18% in data set [3].

On to `CCOc1ccc(-c2cc(C(=O)c3ccccc3)c3ccc(C(=O)OC)ccc2-3)cc1`, for which the inhibition in [1] is 19.1%; in [4], 8.4%. Further, the Emax in [2] is 1.49%; in data set [3], -0.24%.

The term inhibition denotes the change of the read-out against control, counted positive when it falls. The term Emax denotes the size of the effect at its maximum, as opposed to the concentration needed.
